# Data from EP4268824A1 (Manros Therapeutics, priority 2022, dated 2023).
# Experiment: LogD determined by HPLC
# Format: physicochemical
row,SMILES,chromatographic logD
1,"CC(C)c1cnc2c(NCc3ccccc3)nc(NC3CCCC[C@@H]3O)nn12 (stereo in doubt) [compound 62, (1S)-2-[[4-(Benzylamino)-7-isopropyl-imidazo[2,1-f][1,2,4]triazin-2-yl]amino]cyclohexanol]",3.6
2,"COCCNc1nc(NCc2ccccc2)c2ncc(C(C)C)n2n1 [compound 1, N4-Benzyl-7-isopropyl-N2-(2-methoxyethyl)imidazo[2,1-f][1,2,4]triazine-2,4-diamine]",3.5
3,"CC(C)c1cnc2c(NCc3ccccc3)nc(NCCOc3ccccc3)nn12 [compound 2, N4-Benzyl-7-isopropyl-N2-(2-phenoxyethyl)imidazo[2,1-f][1,2,4]triazine-2,4-diamine]",4.74
4,"CSCCNc1nc(NCc2ccccc2)c2ncc(C(C)C)n2n1 [compound 3, N4-Benzyl-7-isopropyl-N2-(2-methylsulfanylethyl)imidazo[2,1-f][1,2,4]triazine-2,4-diamine]",4.13
5,"CC(C)c1cnc2c(NCc3ccccc3)nc(NCCCN(C)C)nn12 [compound 5, N4-Benzyl-N2-[3-(dimethylamino)propyl]-7-isopropyl-imidazo[2,1-f][1,2,4]triazine-2,4-diamine]",2.1
6,"CC(C)c1cnc2c(NCc3ccccc3)nc(NC(C)(C)CO)nn12 [compound 18, 2-[[4-(Benzylamino)-7-isopropyl-imidazo[2,1-f][1,2,4]triazin-2-yl]amino]-2-methyl-propan-1-ol]",3.32
7,"CC(C)c1cnc2c(NCc3ccccc3)nc(NC3CCCCC3)nn12 [compound 59, N4-Benzyl-N2-cyclohexyl-7-isopropyl-imidazo[2,1-f][1,2,4]triazine-2,4-diamine]",5.47
8,"CC(C)c1cnc2c(NCc3ccccc3)nc(NC3CCC(F)(F)CC3)nn12 [compound 60, N4-Benzyl-N2-(4,4-difluorocyclohexyl)-7-isopropyl-imidazo[2,1-f][1,2,4]triazine-2,4-diamine]",4.57
9,"CC(C)c1cnc2c(NCc3ccccc3)nc(NC3CCN(C)CC3)nn12 [compound 61, N4-Benzyl-7-isopropyl-N2-(1-methyl-4-piperidyl)imidazo[2,1-f][1,2,4]triazine-2,4-diamine]",2.14
10,"CC(C)c1cnc2c(NCc3ccccc3)nc(NC3CCC(O)CC3)nn12 (centres unmarked) [compound 63, 4-[[4-(Benzylamino)-7-isopropyl-imidazo[2,1-f][1,2,4]triazin-2-yl]amino]cyclohexanol]",2.93
11,"COC1CCC(Nc2nc(NCc3ccccc3)c3ncc(C(C)C)n3n2)CC1 (centres unmarked) [compound 64, N4-Benzyl-7-isopropyl-N2-(4-methoxycyclohexyl)imidazo[2,1-f][1,2,4]triazine-2,4-diamine]",4.48
12,"CC(C)c1cnc2c(NCc3ccccc3)nc(NC3CCC[C@@H]3O)nn12 (stereo partly drawn) [compound 65, (1S)-2-[[4-(Benzylamino)-7-isopropyl-imidazo[2,1-f][1,2,4]triazin-2-yl]amino]cyclopentanol]",3.26
13,"CC(C)c1cnc2c(NCc3cccnc3)nc(NC3CCC[C@@H]3O)nn12 (stereo partly drawn) [compound 66, (1S)-2-[[7-Isopropyl-4-(3-pyridylmethylamino)imidazo[2,1-f][1,2,4]triazin-2-yl]amino]cyclopentanol]",2.36
14,"CO[C@H]1CCCC1Nc1nc(NCc2ccccc2)c2ncc(C(C)C)n2n1 (stereo partly drawn) [compound 67, N4-Benzyl-7-isopropyl-N2-[(2S)-2-methoxycyclopentyl]imidazo[2,1-f][1,2,4]triazine-2,4-diamine]",4.25
15,"CO[C@H]1CCCC1Nc1nc(NCc2cccnc2)c2ncc(C(C)C)n2n1 (stereo partly drawn) [compound 68, 7-Isopropyl-N2-[(2S)-2-methoxycyclopentyl]-N4-(3-pyridylmethyl)imidazo[2,1-f][1,2,4]triazine-2,4-diamine]",3.04
16,"CC(C)c1cnc2c(NCc3ccccc3)nc(N3CCC(O)C3)nn12 (centres unmarked) [compound 76, 1-[4-(Benzylamino)-7-isopropyl-imidazo[2,1-f][1,2,4]triazin-2-yl]pyrrolidin-3-ol]",3.16
17,"CC(C)c1cnc2c(NCc3cccnc3)nc(N3CCC(O)C3)nn12 (centres unmarked) [compound 77, 1-[7-Isopropyl-4-(3-pyridylmethylamino)imidazo[2,1-f][1,2,4]triazin-2-yl]pyrrolidin-3-ol]",2.29
18,"CC(C)c1cnc2c(NCc3ccccc3)nc(N3CC4(COC4)C3)nn12 [compound 78, N-Benzyl-7-isopropyl-2-(2-oxa-6-azaspiro[3.3]heptan-6-yl)imidazo[2,1-f][1,2,4]triazin-4-amine]",3.42
19,"COC1CCN(c2nc(NCc3ccccc3)c3ncc(C(C)C)n3n2)C1 (centres unmarked) [compound 79, N-Benzyl-7-isopropyl-2-(3-methoxypyrrolidin-1-yl)imidazo[2,1-f][1,2,4]triazin-4-amine]",4.42
20,"COC1CCN(c2nc(NCc3cccnc3)c3ncc(C(C)C)n3n2)C1 (centres unmarked) [compound 80, 7-Isopropyl-2-(3-methoxypyrrolidin-1-yl)-N-(3-pyridylmethyl)imidazo[2,1f][1,2,4]triazin-4-amine]",3.06
21,"COC1CCN(c2nc(NCc3ccccc3)c3ncc(C(C)C)n3n2)CC1 [compound 81, N-Benzyl-7-isopropyl-2-(4-methoxy-1-piperidyl)imidazo[2,1-f][1,2,4]triazin-4-amine]",4.6
22,"COC1CCN(c2nc(NCc3cccnc3)c3ncc(C(C)C)n3n2)CC1 [compound 82, 7-Isopropyl-2-(4-methoxy-1-piperidyl)-N-(3-pyridylmethyl)imidazo[2,1-f][1,2,4]triazin-4-amine]",3.15
23,"CC(C)c1cnc2c(NCc3ccccc3)nc(N3CCSCC3)nn12 [compound 83, N-Benzyl-7-isopropyl-2-thiomorpholino-imidazo[2,1-f][1,2,4]triazin-4-amine]",5.05
24,"CC(C)c1cnc2c(NCc3cccnc3)nc(N3CCSCC3)nn12 [compound 84, 7-Isopropyl-N-(3-pyridylmethyl)-2-thiomorpholino-imidazo[2,1-f][1,2,4]triazin-4-amine]",3.5
25,"CC(C)c1cnc2c(NCc3ccccc3)nc(N3CCC(O)CC3)nn12 [compound 85, 1-[4-(Benzylamino)-7-isopropyl-imidazo[2,1-f][1,2,4]triazin-2-yl]piperidin-4-ol]",3.19
26,"CC(C)c1cnc2c(NCc3cccnc3)nc(N3CCC(O)CC3)nn12 [compound 86, 1-[7-Isopropyl-4-(3-pyridylmethylamino)imidazo[2,1-f][1,2,4]triazin-2-yl]piperidin-4-ol]",2.3
27,"CC(C)c1cnc2c(NCc3ccccc3)nc(N3CCCCC3CCO)nn12 (centres unmarked) [compound 87, 2-[1-[4-(Benzylamino)-7-isopropyl-imidazo[2,1-f][1,2,4]triazin-2-yl]-2-piperidyl]ethanol]",2.71
28,CC(C)c1cnc2c(NCc3ccccc3)nc(NCC3CCN(C)CC3)nn12 [compound 104],2.2
29,"CC(C)c1cnc2c(NCc3ccccc3)nc(NCC3CCCCC3)nn12 [compound 105, N4-Benzyl-N2-(cyclohexylmethyl)-7-isopropyl-imidazo[2,1-f][1,2,4]triazine-2,4-diamine]",5.9
